From patent publication US20050249665A1, “Urea-, glycerate- and, hydroxyamide-headed hydrocarbon chain lyotropic phases forming surfactants” (DBL Australia Pty Ltd., priority 2002, published 2005)
Values joined by “and” are separate entries in the source; they are usually repeats but may differ in a detail not shown here. Identical values can stand only once. “Also recorded” adds a separate entry of the source. Like-named read-outs stand apart in the source and are kept apart here.

Key:
Assay type in all cases: physicochemical
[1] = Lyotropic behaviour: flooding technique on hot stage, optical microscopy under crossed polarised light
Experimental: (§1) Preliminary assessment of the phase behaviour of a selected compound was conducted using the ‘flooding’ technique. The flooding technique involves placing the compound between a coverslip and microscope slide and introducing water to the sample to establish a water concentration gradient through the sample. […] If the experiment is conducted on a hot stage, the temperature range over which the particular lyotropic phases exist can also be determined. The phase behaviour can be observed under normal or cross-polarised light using an optical microscope. […] For the purpose of the present invention it was especially useful for identifying which phase was present at the boundary with excess water.

[2] = Water content of saturated lyotropic phase by Karl Fisher titration; details: 300 mg surfactant in excess water, equilibrated at 40° C.; mean of three samples ± SD
Experimental: The mass of water incorporated in the lyotropic phase was determined by preparing a 300 mg sample of surfactant in excess water, equilibrating at 40° C., and testing the water content of the lyotropic phase by Karl Fisher titration. Values reported are the mean of three separate samples i standard deviation, unless otherwise indicated.

[3] = Flooding experiment: lyotropic phase formed in excess water at 40° C.; note: key: Hll denotes reverse hexagonal phase; details: sample maintained at 40° C., crossed polarised light, 200x
Experimental: as §1
For the surfactant to be useful it preferably forms a viscous lyotropic phase in the presence of excess water. The lyotropic phase formed by the surfactant in excess water was determined by flooding experiments, in which a small amount of lipid (typically 5 mg) is placed between a glass microscope slide and coverslip and water introduced to the sample by capillary action, with the sample maintained at 40° C. by means of a hot stage. Observation under crossed polarised light at 200× magnification allows identification of the phase formed by the visible birefringent texture, or lack thereof.

[4] = flooding with water, temperature as stated per example

Row | SMILES | Lyotropic phase formed at the interface with water [1, 4] | Temperature at which the hexagonal phase is completely melted / sample completely isotropic ([1]; flooding, heating) | Temperature at which the lyotropic phase forms / begins to form on contact with water ([1]; flooding, heating) | % water (w/w) in saturated lyotropic phase [2] | Temperature at which the hexagonal phase begins to melt ([1]; flooding, heating) [°C] | Phase formed in excess water [3] | Temperature at which the hexagonal phase reappears on cooling ([1]; flooding, cooling) [°C] | Temperature at which the isotropic cubic phase reforms on cooling ([1]; flooding, cooling) [°C] | Temperature at which the isotropic cubic phase has disappeared ([1]; flooding, heating) [°C] | Lyotropic phase formed at the interface with water [1] | Temperature at which the lyotropic phase forms / begins to form on contact with water [1] [°C]
1 | CCCCCCCC/C=C\CCCCCCCCNC(N)=O [Example 10, cis-octadec-9enyl urea] | reverse hexagonal phase | 110 °C | 61 °C |  |  |  |  |  |  |  | 
2 | CCCCCCCC/C=C\CCCCCCCCOC(=O)C(O)CO (centres unmarked) [Example 5, 2,3-Dihydroxypropionic acid octadec-9-enyl ester] |  | 80 °C | 30 °C | 16.8 ± 3.9 % (w/w) | 65 | Hll | 77 | 40 | 70 |  | 
3 | CCCCCCCC/C=C\CCCCCCCCNC(=O)NC(N)=O [Example 9, cis-octadec-9-enyl biuret] | hexagonal phase | 107 °C | 85 °C |  |  |  |  |  |  |  | 
4 | CC(C)CCCC(C)CCCC(C)CCCC(C)CC(=O)OCC(O)CO (centres unmarked) [3,7,11,15-tetramethyl-hexadecanoic acid 1-glycerol ester] |  |  |  | 23.1 ± 3.2 % (w/w) |  | Hll |  |  |  |  | 
5 | CCCCC/C=C\C/C=C\CCCCCCCCNC(N)=O [Example 11, cis, cis-octadec-9,12-dienyl urea] | reverse hexagonal phase | 92-93 °C | 53 °C |  |  |  |  |  |  |  | 
6 | CC(C)CCCC(C)CCCC(C)CCCC(C)CCOC(=O)C(O)CO (centres unmarked) [Example 6, 2,3-Dihydroxypropionic acid 3,7,11,15-tetramethyl-hexadecyl ester] | reverse hexagonal phase | 48 °C | room temperature | 28.7 ± 2.5 % (w/w) | ~40 | Hll |  |  |  |  | 
7 | CCCCCCCC/C=C\CCCCCCCCNC(=O)NCCO [Example 8, 1-(2-Hydroxyethyl)-3-(cis-octadec-9-enyl) urea] |  | ~67 °C |  |  |  |  |  |  |  | isotropic phase | 59.5
8 | CC(C)CCCC(C)CCCC(C)CCCC(C)CC(=O)NC(C)(CO)CO (centres unmarked) [Example 7, 3,7,11,15-tetramethyl-hexadecanoic acid (1,1-bis-hydroxymethyl-ethyl)-amide] | isotropic phase; also recorded: hexagonal phase | 26.7 °C | 10-15 °C |  | 25.5 |  |  |  |  |  | 

Now from value to compound, other results behind:

Row | Lyotropic phase formed at the interface with water [1, 4] | Temperature at which the hexagonal phase is completely melted / sample completely isotropic ([1]; flooding, heating) | Temperature at which the lyotropic phase forms / begins to form on contact with water ([1]; flooding, heating) | % water (w/w) in saturated lyotropic phase [2] | Temperature at which the hexagonal phase begins to melt ([1]; flooding, heating) [°C] | Phase formed in excess water [3] | Temperature at which the hexagonal phase reappears on cooling ([1]; flooding, cooling) [°C] | Temperature at which the isotropic cubic phase reforms on cooling ([1]; flooding, cooling) [°C] | Temperature at which the isotropic cubic phase has disappeared ([1]; flooding, heating) [°C] | SMILES | Lyotropic phase formed at the interface with water [1] | Temperature at which the lyotropic phase forms / begins to form on contact with water [1] [°C]
9 | reverse hexagonal phase | 82.1 °C | 25 °C | 28.4 ± 2.3 % (w/w) | 72.6 | Hll |  |  |  | CC(C)CCCC(C)CCCC(C)CCCC(C)CCNC(N)=O (centres unmarked) [Example 3, 3,7,11,15Tetramethyl-hexadecyl urea] |  | 
10 | reverse hexagonal phase | 58.1 °C | 20 °C |  | 50.9 | Hll | 51.1 |  |  | CC(C)CCCC(C)CCCC(C)CCCC(C)CCN(CCO)C(N)=O (centres unmarked) [Example 1, 1-(3,7,11,15tetramethyl-hexadecyl)-1-(2-hydroxyethyl) urea] |  | 
11 |  |  |  | 24.7 ± 0.7 % (w/w) |  | Hll |  |  |  | CC(C)CCCC(C)CCCC(C)CCOC(=O)C(O)CO (centres unmarked) [2,3-Dihydroxypropionic acid 3,7,11-trimethyl-dodecyl ester] |  | 
12 | reverse hexagonal phase | > 70 °C | 30 °C | 8.1 ± 2.5 % (w/w) | 55 | Hll |  |  |  | CC(C)CCCC(C)CCCC(C)CCNC(N)=O (centres unmarked) [Example 4, 3,7,11-Trimethyl-dodecyl urea] |  | 
13 | reverse hexagonal phase | 58 °C and 57.3 °C | below 8 °C | 14.3 ± 4.6 % (w/w) | 40.4 | Hll | 44.1 |  |  | CC(C)CCCC(C)CCCC(C)CCCC(C)CCNC(=O)NCCO (centres unmarked) [Example 2, 1-(3,7,11,15-tetramethyl-hexadecyl)-3-(2-hydroxyethyl) urea] |  | 
